Assay results published in paper PMC11470957, “Principles of paralog-specific targeted protein degradation engaging the C-degron E3 KLHDC2” (Nature Communications, 2024).
Read-outs that look alike come from different tables or passages of the source.

Molecular target: BRD3 (Homo sapiens, UniProt Q15059)
Assay: Western blot of BRD3 levels after cellular dosing
Conditions: for remaining activity at 2.19382 µM: Log SJ46420 (uM) 2.19382; for remaining activity at 2.19382 µM / remaining activity at 2.49485 µM / remaining activity at 2.79588 µM / remaining activity at 3.09691 µM / remaining activity at 3.39794 µM: Rep1, Rep2; for remaining activity at 2.49485 µM: Log SJ46420 (uM) 2.49485; for remaining activity at 2.79588 µM: Log SJ46420 (uM) 2.79588; for remaining activity at 3.09691 µM: Log SJ46420 (uM) 3.09691; for remaining activity at 3.39794 µM: Log SJ46420 (uM) 3.39794
[1] = 22Rv1, read-out: BRD3 (DMSO = 100), 22Rv1 cells
[2] = PC-3, read-out: BRD3 (DMSO = 100), PC3 cells

Sequence of BRD3 (Q15059 whole entry): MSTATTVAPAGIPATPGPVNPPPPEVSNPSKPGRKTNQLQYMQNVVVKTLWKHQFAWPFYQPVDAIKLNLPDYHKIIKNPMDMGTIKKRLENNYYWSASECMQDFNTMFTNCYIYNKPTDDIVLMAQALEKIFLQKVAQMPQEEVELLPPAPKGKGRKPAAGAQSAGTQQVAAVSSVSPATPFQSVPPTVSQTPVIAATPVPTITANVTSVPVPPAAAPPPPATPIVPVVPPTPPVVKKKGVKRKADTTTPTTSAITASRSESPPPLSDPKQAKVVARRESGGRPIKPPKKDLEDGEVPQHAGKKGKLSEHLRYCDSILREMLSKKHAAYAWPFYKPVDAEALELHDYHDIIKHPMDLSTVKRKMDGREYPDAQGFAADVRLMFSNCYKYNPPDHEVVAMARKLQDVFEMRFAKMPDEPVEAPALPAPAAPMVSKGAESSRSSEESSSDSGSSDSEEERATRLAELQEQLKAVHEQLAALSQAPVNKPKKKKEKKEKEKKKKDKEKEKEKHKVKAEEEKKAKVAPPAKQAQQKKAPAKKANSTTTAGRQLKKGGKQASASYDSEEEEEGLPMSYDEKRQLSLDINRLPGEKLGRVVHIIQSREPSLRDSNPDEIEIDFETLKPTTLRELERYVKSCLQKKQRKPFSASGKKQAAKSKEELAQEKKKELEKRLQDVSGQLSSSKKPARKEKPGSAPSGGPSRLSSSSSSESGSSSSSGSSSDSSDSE

## COC(=O)CNC(=O)Cc1csc(-c2ccc3cccc(OCCN4CCN(C(=O)C[C@@H]5N=C(c6ccc(Cl)cc6)c6c(sc(C)c6C)-n6c(C)nnc65)CC4)c3c2)n1 [SJ46420]
22Rv1
  selectivity for BRD3 over BRD4 (DC50): ~ 44 fold
22Rv1, 24 h, read-out: BRD3 level relative to DMSO (100%), 22Rv1, 0.16µM, 24 h, Fig S6f
  remaining activity at 0.16 µM: 74 ± 4.4%
22Rv1, 24 h, read-out: BRD3 level relative to DMSO (100%), 22Rv1, 0.31µM, 24 h, Fig S6f
  remaining activity at 0.31 µM: 54 ± 11%
22Rv1, 24 h, read-out: BRD3 level relative to DMSO (100%), 22Rv1, 0.63µM, 24 h, Fig S6f
  remaining activity at 0.63 µM: 45 ± 4.6%
22Rv1, 24 h, read-out: BRD3 level relative to DMSO (100%), 22Rv1, 1.3µM, 24 h, Fig S6f
  remaining activity at 1.3 µM: 27 ± 2.2%
22Rv1, 24 h, read-out: BRD3 level relative to DMSO (100%), 22Rv1, 2.5µM, 24 h, Fig S6f
  remaining activity at 2.5 µM: 21 ± 3.7%
22Rv1, 24 h, read-out: BRD3 level relative to DMSO (100%), 22Rv1, 5µM, 24 h, Fig S6f
  remaining activity at 5 µM: 4.3 ± 3.5%
22Rv1, 24 h, read-out: BRD3 level relative to DMSO (100%), 22Rv1, 10µM, 24 h, Fig S6f
  remaining activity at 10 µM: 2.9 ± 2.8%
[1]
  remaining activity at 2.19382 µM: 71.3%
  remaining activity at 2.49485 µM: 46.9%
  remaining activity at 2.79588 µM: 42.3%
  remaining activity at 3.09691 µM: 29.2%
  remaining activity at 3.39794 µM: 23.9%
22Rv1, read-out: BRD3 Dmax, 22Rv1, 24 h dose
  Dmax: 93.7%
22Rv1, read-out: BRD3 level, Western blot quantification (DMSO = 100), Fig S6f, 22RV1 KO/rescue Dose Response, 0.156 uM
  remaining activity at 0.156 µM: 71.3%
22Rv1, read-out: BRD3 level, Western blot quantification (DMSO = 100), Fig S6f, 22RV1 KO/rescue Dose Response, 0.313 uM
  remaining activity at 0.313 µM: 46.9%
22Rv1, read-out: BRD3 level, Western blot quantification (DMSO = 100), Fig S6f, 22RV1 KO/rescue Dose Response, 0.625 uM
  remaining activity at 0.625 µM: 42.3%
22Rv1, read-out: BRD3 level, Western blot quantification (DMSO = 100), Fig S6f, 22RV1 KO/rescue Dose Response, 1.25 uM
  remaining activity at 1.25 µM: 29.2%
22Rv1, read-out: BRD3 level, Western blot quantification (DMSO = 100), Fig S6f, 22RV1 KO/rescue Dose Response, 2.5 uM
  remaining activity at 2.5 µM: 23.9%
24 h, read-out: BRD3 level relative to DMSO (100%), PC3, 0.16µM, 24 h, Fig S6e
  remaining activity at 0.16 µM: 107 ± 8.6%
24 h, read-out: BRD3 level relative to DMSO (100%), PC3, 0.31µM, 24 h, Fig S6e
  remaining activity at 0.31 µM: 72 ± 3.2%
24 h, read-out: BRD3 level relative to DMSO (100%), PC3, 0.63µM, 24 h, Fig S6e
  remaining activity at 0.63 µM: 32 ± 5%
24 h, read-out: BRD3 level relative to DMSO (100%), PC3, 1.3µM, 24 h, Fig S6e
  remaining activity at 1.3 µM: 13 ± 2.8%
24 h, read-out: BRD3 level relative to DMSO (100%), PC3, 2.5µM, 24 h, Fig S6e
  remaining activity at 2.5 µM: 7.3 ± 2.7%
24 h, read-out: BRD3 level relative to DMSO (100%), PC3, 5µM, 24 h, Fig S6e
  remaining activity at 5 µM: 4.8 ± 2.4%
24 h, read-out: BRD3 level relative to DMSO (100%), PC3, 10µM, 24 h, Fig S6e
  remaining activity at 10 µM: 1.8 ± 2.1%
24 h dose, Fig 6b
  BRD3 levels in U2OS cell line with KLHDC2 knocked out: unaffected
AU565, 8 h, read-out: BRD3 level relative to DMSO (100%), AU565, 0.2µM, 8 h, Fig S6c
  remaining activity at 0.2 µM: 56 ± 3.4%
AU565, 8 h, read-out: BRD3 level relative to DMSO (100%), AU565, 1µM, 8 h, Fig S6c
  remaining activity at 1 µM: 29 ± 2.4%
AU565, 8 h, read-out: BRD3 level relative to DMSO (100%), AU565, 5µM, 8 h, Fig S6c
  remaining activity at 5 µM: 3.9 ± 1.1%
AU565, read-out: BRD3 level, Western blot quantification (DMSO = 100), Fig S6c, AU565 Cells, 0.2 uM
  remaining activity at 0.2 µM: 58.8%
AU565, read-out: BRD3 level, Western blot quantification (DMSO = 100), Fig S6c, AU565 Cells, 1 uM
  remaining activity at 1 µM: 30.4%
AU565, read-out: BRD3 level, Western blot quantification (DMSO = 100), Fig S6c, AU565 Cells, 5 uM
  remaining activity at 5 µM: 4.75%
HEK-293T, 24 h, read-out: BRD3 level relative to DMSO (100%), 293T, 2.5µM, 24 h, Fig S6a
  remaining activity at 2.5 µM: 44 ± 2.3%
HEK-293T, 24 h, read-out: BRD3 level relative to DMSO (100%), 293T, 5µM, 24 h, Fig S6a
  remaining activity at 5 µM: 18 ± 3.7%
HEK-293T, read-out: BRD3 level, Western blot quantification (DMSO = 100), Fig S6a, 293T cells, 2.5 uM
  remaining activity at 2.5 µM: 46%
HEK-293T, read-out: BRD3 level, Western blot quantification (DMSO = 100), Fig S6a, 293T cells, 5 uM
  remaining activity at 5 µM: 20.9%
MDA-MB-468, 24 h, read-out: BRD3 level relative to DMSO (100%), MDA-MB-468, 2.5µM, 24 h, Fig S6b
  remaining activity at 2.5 µM: 41 ± 3.3%
MDA-MB-468, 24 h, read-out: BRD3 level relative to DMSO (100%), MDA-MB-468, 5µM, 24 h, Fig S6b
  remaining activity at 5 µM: 20 ± 2.9%
MDA-MB-468, 24 h, read-out: BRD3 level relative to DMSO (100%), MDA-MB-468, 10µM, 24 h, Fig S6b
  remaining activity at 10 µM: 15 ± 2.2%
MDA-MB-468, read-out: BRD3 level, Western blot quantification (DMSO = 100), Fig S6b, MDA-MB468 Cells, 2 uM
  remaining activity at 2 µM: 39.3%
MDA-MB-468, read-out: BRD3 level, Western blot quantification (DMSO = 100), Fig S6b, MDA-MB468 Cells, 5 uM
  remaining activity at 5 µM: 17.8%
MDA-MB-468, read-out: BRD3 level, Western blot quantification (DMSO = 100), Fig S6b, MDA-MB468 Cells, 10 uM
  remaining activity at 10 µM: 13.8%
PC3
  selectivity for BRD3 over BRD4 (DC50): ~ 28 fold
[2]
  remaining activity at 2.19382 µM: 108%
  remaining activity at 2.49485 µM: 70.7%
  remaining activity at 2.79588 µM: 29.3%
  remaining activity at 3.09691 µM: 11.3%
  remaining activity at 3.39794 µM: 5.44%
SK-BR-3, 2 h, read-out: BRD3 level relative to DMSO (100%), SKBR3, 1µM, 2hr, Fig S6g
  remaining activity at 1 µM: 49 ± 6.7%
SK-BR-3, 2 h, read-out: BRD3 level relative to DMSO (100%), SKBR3, 5µM, 2hr, Fig S6g
  remaining activity at 5 µM: 35 ± 5.2%
SK-BR-3, 2 h, read-out: BRD3 level, Western blot quantification (DMSO = 100), Fig S6g, SKBR3 Time course, 1 uM, 2hr
  remaining activity at 1 µM: 54.5%
SK-BR-3, 2 h, read-out: BRD3 level, Western blot quantification (DMSO = 100), Fig S6g, SKBR3 Time course, 5 uM, 2hr
  remaining activity at 5 µM: 39.4%
